# Source: patent US11400107B2, “Cancer treatments” (NuCana plc, priority 2016, dated 2022)
# “Also recorded” adds a separate entry of the source.
# System: advance progressive cancers refractory to, or relapsed on, all conventional therapies
# Experiment: ProGem1 dose escalation clinical study of NUC-1031
# Assay type: in vivo, human
# Design: CA125 level: unit not given here
# From the text: The following data were generated in clinical studies of NUC-1031 in human patients with advance progressive cancers that are refractory to, or have relapsed on, all conventional therapies that have been used to date. The results clearly illustrate the ability of NUC-1031 to successfully treat refractory cancers.
# Although the primary objectives of the dose escalation part of the study were to determine the Recommended Phase II Dose (RP2D) and safety profile, secondary objectives included determining the PK profile, however effective treatment of patients with a range of refractory cancers has also been observed as part of this study.
# A total of 68 patients have been entered into this dose escalation study, of which 49 were evaluable for clinical response in that they have received at least 2 Cycles of NUC-1031 and were therefore eligible for a RECIST 1.1 assessment.
# NUC-1031 was administered as a 5 to 30 minute intravenous slow bolus injection. • Schedule A: NUC-1031 was administered on days 1, 8, 15 of a 4 weekly Cycle. • Schedule B: NUC-1031 was administered on days 1, 5, 8, 12, 15, 19, of a 4 weekly Cycle. Evaluable Patients [n=49]
# Evaluable patients were patients that received ≥2 Cycles of NUC-1031 and were therefore eligible for a RECIST 1.1 assessment at the end of Cycle 2. Where the disease response duration, measured in months, is followed by a “+” this indicates ongoing disease control as of the latest cut-off date.
# [1] = Patient 004, breast cancer, 500 mg/m^2 weekly
# [2] = Patient 005, ovarian cancer, 500 mg/m^2 weekly
# [3] = Patient 006, cholangiocarcinoma, 375 mg/m^2 twice weekly, then 500 mg/m^2
# [4] = Patient 007, colorectal cancer, 375 mg/m^2 twice weekly, then 500 mg/m^2 weekly
# [5] = Patient 008, cancer of unknown primary, 375 mg/m^2 twice weekly
# [6] = Patient 010, endometrial cancer, 750 then 500 mg/m^2 weekly
# [7] = Patient 011, uterine carcinosarcoma, 375 mg/m^2 twice weekly
# [8] = Patient 011, uterine carcinosarcoma, 375 mg/m^2 twice weekly, then 625 mg/m^2 weekly
# [9] = Patient 012, cholangiocarcinoma, 375 mg/m^2 twice weekly, then 625 mg/m^2 weekly
# [10] = Patient 013, cervical cancer, 750, 625, then 500 mg/m^2 weekly
# [11] = Patient 017, lung cancer, 750 then 625 mg/m^2 weekly
# [12] = Patient 018, lung cancer, 625 mg/m^2 weekly
# [13] = Patient 021, fallopian tube cancer, 625 mg/m^2 weekly
# [14] = Patient 025, mesothelioma, 725 mg/m^2 weekly
# [15] = Patient 026, colorectal cancer, 725 mg/m^2 weekly
# [16] = Patient 027, ovarian cancer, 725, 675, then 625 mg/m^2 weekly
# [17] = Patient 029, breast cancer, 725 mg/m^2 weekly
# [18] = Patient 030, ovarian cancer, 725 mg/m^2 weekly
# [19] = Patient 032, oesophageal cancer, 750 mg/m^2 weekly
# [20] = Patient 033, cholangiocarcinoma, 750 mg/m^2 weekly
# [21] = Patient 036, renal carcinoma, 825 then 750 mg/m^2 weekly
# [22] = Patient 037, pancreatic cancer, 1,000 then 900 mg/m^2 weekly
smiles,measurement,setting,value
"C[C@H](NP(=O)(OC[C@H]1O[C@@H](n2ccc(N)nc2=O)C(F)(F)[C@@H]1O)Oc1ccccc1)C(=O)OCc1ccccc1 (stereo partly drawn) [NUC-1031, 2′-deoxy-2′,2′-difluoro-D-cytidine-5′-O-[phenyl (benzoxy-L-alaninyl)] phosphate]",Best response to RECIST,[1],Stable Disease
same,Duration of response to RECIST,[1],12 months
same,Best response to RECIST,[2],Stable Disease
same,Duration of response to RECIST,[2],15 months
same,CA125 level,"Patient 005, ovarian cancer, end of Cycle 6 (208 at start of study)",140
same,Best response to RECIST,[3],Stable Disease
same,Duration of response to RECIST,[3],3 months
same,CA19.9 level,"Patient 006, cholangiocarcinoma, after two doses (from 125,002)","59,285"
same,Adverse events (grade),[4],thrombocytopaenia (G3)
same,Best response to RECIST,[4],Stable Disease
same,Duration of response to RECIST,[4],3 months
same,CEA level,"Patient 007, colorectal cancer, after treatment (from 361)",286
same,CA19.9 level,"Patient 007, colorectal cancer, after treatment (from 3,151)","2,957"
same,Adverse events (grade),[5],transient (G3) transaminitis (ALT and AST)
same,Best response to RECIST,[5],Stable Disease
same,Duration of response to RECIST,[5],3 months
same,Adverse events (grade),[6],neutropenia (G3); also recorded: transient Grade 3 anaemia
same,Best response to RECIST,[6],Stable Disease
same,Duration of response to RECIST,[6],9 months
same,CA125 level,"Patient 010, endometrial cancer, after treatment (from 727)",488
same,Adverse events (grade),[7],transient neutropaenia (G3); also recorded: low haemoglobin (G2)
same,Reduction in tumour volume,[7],26%
same,Best response to RECIST,[8],Stable Disease
same,Duration of response to RECIST,[8],4 months
same,Best response to RECIST,[9],Stable Disease
same,Duration of response to RECIST,[9],8 months
same,Best response to RECIST,[10],Partial Response
same,Duration of response to RECIST,[10],9 months
same,PFS,[10],11 months
same,Best response to RECIST,"Patient 014, mesothelioma, 750 then 625 mg/m^2 weekly",Progressive Disease
same,Best response to RECIST,"Patient 015, cancer (unknown primary), 750, 625, then 500 mg/m^2 weekly",Partial Response
same,Reduction in tumour size,"Patient 015, cancer (unknown primary), CT scan on 9 Jan. 2015",approximately 58%
same,Adverse events (grade),"Patient 015, cancer (unknown primary), Cycle 1 Day 8",thrombocytopenia (G3); also recorded: lymphopenia (G3); also recorded: neutropenia (G2)
same,PFS,"Patient 015, cancer (unknown primary), ongoing",≥ 24 months
same,Duration of response to RECIST,"Patient 015, cancer (unknown primary), ongoing, 750, 625, then 500 mg/m^2 weekly",≥ 20 months
same,Best response to RECIST,[11],Partial Response
same,Duration of response to RECIST,[11],3 Months
same,PFS,[11],10 Months
same,Best response to RECIST,[12],Stable Disease
same,Duration of response to RECIST,[12],4 months
same,Best overall response,[13],Partial Response
same,Duration of Partial Response according to GCIG criteria,[13],9 months
same,Duration of Partial Response according to RECIST,[13],3 months
same,CA125 reduction from baseline,"Patient 021, fallopian tube cancer, baseline to end of Cycle 6",91%
same,CA125 level,"Patient 021, fallopian tube cancer, end of Cycle 6 (baseline 372)",35
same,Best response to RECIST,"Patient 024, cancer of unknown primary, 675 mg/m^2 weekly",Progressive Disease
same,Best response to RECIST,[14],Stable Disease
same,Duration of response to RECIST,[14],4 months
same,Best response to RECIST,[15],Stable Disease
same,Duration of response to RECIST,[15],4 months
same,Adverse events (grade),"Patient 027, ovarian cancer, 725 mg/m^2, following Cycle 1 Day 1, a DLT",elevated ALT (G3)
same,Best response to RECIST,[16],Stable Disease
same,Duration of response to RECIST,[16],8 months
same,Reduction in tumour volume,[16],23%
same,ALT level,"Patient 027, ovarian cancer, day 7 after Cycle 1 Day 1 at 725 mg/m^2 (96 at baseline)",256 U/L
same,CA125 level,"Patient 027, ovarian cancer, end of Cycle 6 (188 at baseline)",99
same,Best response to RECIST,[17],Stable Disease
same,Duration of response to RECIST,[17],4 months
same,Best response to RECIST,[18],Stable Disease
same,Duration of response to RECIST,[18],3 months
same,Best response to RECIST,"Patient 031, cholangiocarcinoma, 750 mg/m^2 weekly, end of Cycle 2 CT scan",Progressive Disease
same,Best response to RECIST,[19],Stable Disease
same,Duration of response to RECIST,[19],2 months
same,Best response to RECIST,[20],Stable Disease
same,Duration of response to RECIST,[20],3 months
same,Adverse events (grade),"Patient 036, renal carcinoma, 825 mg/m^2, following Cycle 5 Day 1",thrombocytopenia (G3)
same,Best response to RECIST,[21],Stable Disease
same,Duration of response to RECIST,[21],5 months
same,Reduction in tumour volume,"Patient 036, renal carcinoma, end of Cycle 4 CT scan",7%
same,Best response to RECIST,[22],Partial Response
same,Duration of response to RECIST,[22],1 month
same,PFS,[22],4 months
same,Reduction in tumour volume,"Patient 037, pancreatic cancer, CT scan on 29 Apr. 2014",30%
same,CEA level,"Patient 037, pancreatic cancer, after treatment (536 at baseline)",42
same,CA19.9 level,"Patient 037, pancreatic cancer, after treatment (15,000 at baseline)","4,000"
same,Reduction in tumour volume,"Patient 037, pancreatic cancer, end of Cycle 2 CT scan",18.4%
same,Best response to RECIST,"Patient 038, ovarian cancer, 900 mg/m^2 weekly",Progressive Disease
same,Increase in tumour volume,"Patient 038, ovarian cancer, end of Cycle 2 scan",25%
